Where two headings read alike, the source gives them in different places. Each block holds one compound with its values, some of them ahead of it.
Experiments:
Assay type in all cases: in vivo
Zea mays (ZEAMX) [1] = conditions: for Post-emergence action against ZEAMX in %: crop plant compatibility, effect vs untreated controls
Summary of the method: (§1)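 Percent effect on the crop was judged by eye against untreated controls, where 0% means like control and 100% means dead plants. Plants had been sprayed post-emergence at the one-leaf stage and then kept under optimum greenhouse conditions for about 3 weeks.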

Oryza sativa (ORYSA) [2] = conditions: crop plant compatibility
Summary of the method: as §1

[3] = test system: Triticum aestivum (TRZAS); conditions: crop plant compatibility, 80 g/ha, effect vs untreated controls
Summary of the method: as §1

[4] = test system: Verconica persica (VERPE); experiment: Post-emergence herbicidal action against VERPE; conditions: 320 g/ha, VERPE
Summary of the method: (§2)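 Rates were 320 g/ha or below, applied as aqueous WP/EC spray with 0.5% additive (600 l/ha) onto one-leaf-stage plants. About 3 weeks later in the greenhouse, damage was scored visually against untreated plants on a 0–100% scale, where 100% means plants died.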

Glycine max (GLXMA) = conditions: crop plant compatibility; for Pre-emergence action against GLXMA in %: 80 g/ha, in comparison to untreated controls
Summary of the method: (§3)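 Scoring: visual, % of untreated control, about 3 weeks after a pre-emergence application to the soil surface. Application used WP or EC formulations diluted in water with 0.5% additive at 600 l/ha; dosage levels are marked by suffixes a, b and c.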

Brassica napus (BRSNW) = conditions: crop plant compatibility, in comparison to untreated controls
Summary of the method: as §3

Zea mays (ZEAMX) [5] = conditions: crop plant compatibility; for Pre-emergence action against ZEAMX in %: in comparison to untreated controls
Summary of the method: as §3

Oryza sativa (ORYSA) [6] = conditions: crop plant compatibility; for Pre-emergence action against ORYSA in %: in comparison to untreated controls
Summary of the method: as §3

[7] = test system: Triticum aestivum (TRZAS); conditions: crop plant compatibility; for Pre-emergence action against TRZAS in %: 80 g/ha, in comparison to untreated controls
Summary of the method: as §3

[8] = test system: Digitaria sanguinalis (DIGSA); experiment: Pre-emergence herbicidal action against DIGSA
Summary of the method: (§4)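 Herbicide applied to soil before seedling emergence, at 600 l/ha spray volume with 0.5% additive and rates up to 320 g/ha. Evaluation: visual percentage effect, about 3 weeks later, greenhouse-grown pots compared with untreated ones.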

[9] = test system: Amaranthus retroflexus (AMARE); experiment: Post-emergence herbicidal action against AMARE; conditions: 320 g/ha, visual rating about 3 weeks after treatment
Summary of the method: as §2

Setaria viridis (SETVI) [10] = experiment: Pre-emergence herbicidal action against SETVI; conditions: dosage 320 g/ha
Summary of the method: as §4

[11] = test system: Abutilon theophrasti (ABUTH); experiment: Pre-emergence herbicidal action against ABUTH; conditions: Dosage column 320 g/ha (title prints 3200 g/ha); scored visually after about 3 weeks; 100% = plants have died
Summary of the method: as §4

Lolium rigidum (LOLRI) [12] = experiment: Post-emergence herbicidal action against LOLRI; conditions: dosage 320 g/ha
Summary of the method: as §2

Avena fatua (AVEFA) [13] = experiment: Post-emergence herbicidal action against AVEFA; conditions: visual rating about 3 weeks after treatment
Summary of the method: as §2

Viola tricolor (VIOTR) [14] = experiment: Pre-emergence herbicidal action against VIOTR; conditions: 320 g/ha, Viola tricolor
Summary of the method: as §4

[15] = test system: Matricaria inodora (MATIN); experiment: Pre-emergence herbicidal action against MATIN
Summary of the method: as §4

Viola tricolor (VIOTR) [16] = experiment: Post-emergence herbicidal action against VIOTR; conditions: 320 g/ha
Summary of the method: as §2

[17] = test system: Amaranthus retroflexus (AMARE); experiment: Pre-emergence herbicidal action against AMARE; conditions: visual scoring after about 3 weeks vs untreated controls
Summary of the method: as §4

Lolium rigidum (LOLRI) [18] = experiment: Pre-emergence herbicidal action against LOLRI; conditions: dosage 320 g/ha
Summary of the method: as §4

[19] = test system: Verconica persica (VERPE); experiment: Pre-emergence herbicidal action against VERPE; conditions: dosage 320 g/ha
Summary of the method: as §4

[20] = test system: Polygonum convolvulus (POLCO); experiment: Pre-emergence herbicidal action against POLCO; conditions: dosage 320 g/ha
Summary of the method: as §4

[21] = test system: Alopecurus myosuroides (ALOMY); experiment: Post-emergence herbicidal action against ALOMY; conditions: visual rating about 3 weeks after treatment vs untreated controls (100% = plants have died, 0% = like control plants)
Summary of the method: as §2

[22] = test system: Echinochloa crus-galli (ECHCG); experiment: Pre-emergence herbicidal action against ECHCG; conditions: dosage 320 g/ha
Summary of the method: as §4

Avena fatua (AVEFA) [23] = experiment: Pre-emergence herbicidal action against AVEFA; conditions: 320 g/ha, visual scoring after about 3 weeks vs untreated controls
Summary of the method: as §4

[24] = test system: Alopecurus myosuroides (ALOMY); experiment: Pre-emergence herbicidal action against ALOMY; conditions: scored visually after about 3 weeks, 100% = plants have died
Summary of the method: as §4

[25] = test system: Digitaria sanguinalis (DIGSA); experiment: Post-emergence herbicidal action against DIGSA; conditions: visual rating about 3 weeks after treatment
Summary of the method: as §2

Setaria viridis (SETVI) [26] = experiment: Post-emergence herbicidal action against SETVI
Summary of the method: as §2

[27] = 80 g/ha, effect in comparison to untreated controls
[28] = 20 g/ha, effect vs untreated controls

Post-emergence action against ZEAMX in % (Zea mays (ZEAMX) [1]; 80 g/ha): 0% | Post-emergence action against ZEAMX in % (Zea mays (ZEAMX) [1]; 320 g/ha): 10% | Post-emergence action against ORYSA in % (Oryza sativa (ORYSA) [2]; [27]): 20% | Post-emergence action against TRZAS in % [3]: 10% | Pre-emergence action against GLXMA in % (Glycine max (GLXMA)): 0% | Pre-emergence action against BRSNW in % (Brassica napus (BRSNW); 80 g/ha): 20% | Pre-emergence action against ZEAMX in % (Zea mays (ZEAMX) [5]; 80 g/ha): 0% | Pre-emergence action against ZEAMX in % (Zea mays (ZEAMX) [5]; 320 g/ha): 10% | Pre-emergence action against ORYSA in % (Oryza sativa (ORYSA) [6]; 80 g/ha): 10% | Pre-emergence action against ORYSA in % (Oryza sativa (ORYSA) [6]; 320 g/ha): 20% | Pre-emergence action against TRZAS in % [7]: 10%
SMILES: COC(=O)C=CC(C)NC(=O)COc1nn(-c2ccccn2)c(-c2ccc(F)nc2)c1Br (stereo not drawn) [Example I-345]
Post-emergence action against VERPE in % [4]: 80% | Pre-emergence action against DIGSA in % ([8]; dosage 320 g/ha): 90% | Post-emergence action against AMARE in % [9]: 80%

Post-emergence action against ZEAMX in % (crop plant compatibility) (Zea mays (ZEAMX) [1]; 20 g/ha, ZEAMX, effect in comparison to untreated controls): 0% | Post-emergence action against ORYSA in % (Oryza sativa (ORYSA) [2]; [28]): 0% | Post-emergence action against ORYSA in % (Oryza sativa (ORYSA) [2]; [27]): 10% | Pre-emergence action against GLXMA (Glycine max (GLXMA); [28]): 10% | Pre-emergence action against GLXMA in % (Glycine max (GLXMA)): 10% | Pre-emergence action against BRSNW in % (Brassica napus (BRSNW); 20 g/ha): 10% | Pre-emergence action against BRSNW in % (Brassica napus (BRSNW); 80 g/ha): 10% | Pre-emergence action against BRSNW in % (Brassica napus (BRSNW); 320 g/ha): 20% | Pre-emergence action against ZEAMX (Zea mays (ZEAMX) [5]; [28]): 10% | Pre-emergence action against ORYSA (Oryza sativa (ORYSA) [6]; [28]): 0% | Pre-emergence action against ORYSA in % (Oryza sativa (ORYSA) [6]; 80 g/ha): 10% | Pre-emergence action against TRZAS [7, 28]: 10% | Pre-emergence action against TRZAS in % [7]: 20%
SMILES: C[C@@H](Oc1nn(-c2ccc(F)cn2)c(-c2cncc(F)c2)c1Br)C(=O)O [Example I-13]
Pre-emergence action against SETVI in % (Setaria viridis (SETVI) [10]): 90% | Pre-emergence action against ABUTH [11]: 90% | Post-emergence action against LOLRI in % (Lolium rigidum (LOLRI) [12]): 90% | Post-emergence action against AVEFA in % (Avena fatua (AVEFA) [13]; 80 g/ha): 80% | Post-emergence action against AVEFA in % (Avena fatua (AVEFA) [13]; 320 g/ha): 90% | Pre-emergence action against VIOTR in % (Viola tricolor (VIOTR) [14]): 90% | Post-emergence action against VERPE in % [4]: 80% | Pre-emergence action against MATIN in % ([15]; dosage 80 g/ha): 80% | Pre-emergence action against MATIN in % ([15]; dosage 320 g/ha): 80% | Post-emergence action against VIOTR in % (Viola tricolor (VIOTR) [16]): 80% | Pre-emergence action against AMARE in % ([17]; 80 g/ha): 90% | Pre-emergence action against AMARE in % ([17]; 320 g/ha): 100% | Pre-emergence action against LOLRI in % (Lolium rigidum (LOLRI) [18]): 90% | Pre-emergence action against VERPE in % [19]: 80% | Pre-emergence action against POLCO in % [20]: 100% | Post-emergence action against ALOMY in % ([21]; 80 g/ha): 90% | Post-emergence action against ALOMY in % ([21]; 320 g/ha): 90% | Pre-emergence action against ECHCG in % [22]: 90% | Pre-emergence action against DIGSA in % ([8]; 80 g/ha, visual scoring after about 3 weeks vs untreated controls): 100% | Pre-emergence action against DIGSA in % ([8]; dosage 320 g/ha): 100% | Pre-emergence action against AVEFA in % (Avena fatua (AVEFA) [23]): 90% | Pre-emergence action against ALOMY ([24]; 80 g/ha): 90% | Pre-emergence action against ALOMY ([24]; 320 g/ha): 100% | Post-emergence action against DIGSA in % ([25]; 80 g/ha): 90% | Post-emergence action against DIGSA in % ([25]; 320 g/ha): 90% | Post-emergence action against SETVI in % (Setaria viridis (SETVI) [26]; dosage 80 g/ha): 80% | Post-emergence action against SETVI in % (Setaria viridis (SETVI) [26]; dosage 320 g/ha): 90%

Reference: patent publication US20240041042A1, “1-(PYRIDYL)-5-AZINYLPYRAZOLE DERIVATIVES, AND THEIR USE FOR CONTROL OF UNDESIRED PLANT GROWTH” (Bayer Aktiengesellschaft, priority 2020, published 2024)
